Experimental data taken from US11472771B2, “Process for making amino diaryl ethers and amino diaryl ethers hydrochloride salts” (CELLESTIA BIOTECH AG, priority 2018, dated 2022).
Converted amounts (≈) assume the structure as drawn.

Assays:
[1] = Solubility in water at various pH-values; format: physicochemical; details: for pH solution / soluble / calculated concentration charged: 500 mg in 14 ml; for soluble: conc. 33.33 mg/mL; for calculated concentration charged: not soluble
Experimental: The solubilities in water of 6-(4-(tert-butyl)phenoxy)pyridin-3-amine (formula (Ia)) and the monohydrochloride salt thereof, i.e. 6-(4-(tert-butyl)phenoxy)pyridin-3-amine monohydrochloride, were assessed at various pH-values according to Tables 3 and 4. The solubility in water of 6-(4-(tert-butyl)phenoxy)pyridin-3-amine (formula (Ia)) according to Table 3 was assayed as follows: Free base 500 mg were charged into 14 mL of acidic media at pH=2, 4, at neutral pH=7 and basic pH=10 to afford suspensions within calculated concentration of appr. 35 mg/mL. The solubility in water of 6-(4-(tert-butyl)phenoxy)pyridin-3-amine monohydrochloride according to Table 4 was assayed as follows: HCl salt 100 mg each were charged into acidic media at pH=2 and 4 and neutral media pH=7 to furnish solutions. Most important observation was to that at a neutral solution at pH=7 drops down to pH=1 by charging HCl salt 100 mg.

[2] = Solubility in water at various pH-values; format: physicochemical; details: aqueous buffer, thermodynamic from solid; in 0.01% HCl; 100 mg in 190 mL; read-out: solubility limit
[3] = 15% acetic acid soln., pH solvent 2

CC(C)(C)c1ccc(Oc2ccc(N)cn2)cc1 [6-(4-(tert-butyl)phenoxy)pyridin-3-amine]
pH solution [1, 3]: 2
soluble [1, 3]: no
calculated concentration charged [1, 3]: 33.33 mg/mL
pH solution ([1]; Fluke 33643 (pH = 4)): 4
soluble ([1]; Fluke 33643 (pH = 4)): no
calculated concentration charged ([1]; Fluke 33643 (pH = 4)): 33.33 mg/mL
pH solution ([1]; Fluke 33646 (pH = 7)): 7
soluble ([1]; Fluke 33646 (pH = 7)): no
calculated concentration charged ([1]; Fluke 33646 (pH = 7)): 33.33 mg/mL
pH solution ([1]; Fluke 33649 (pH = 10)): 10
soluble ([1]; Fluke 33649 (pH = 10)): no
calculated concentration charged ([1]; Fluke 33649 (pH = 10)): 33.33 mg/mL
solubility in water ([1]; water, in words): very poorly soluble
solubility [2]: 530 µg/mL (≈ 2190 µM)
